Consider 18 compounds from PubChem BioAssay (NCI).

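A five-concentration, 48-hour dose response in 96-well plates underlies each endpoint, interpolated linearly between surrounding concentrations. GI50 is the concentration that inhibits growth by half. The concentration for full growth arrest is given as TGI.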

What all share (assay): growth of human tumour cells (NCI), 48 h
Assay [1] deals with HL-60(TB) leukemia.
For assay [2], the system named is T-47D breast.
Assay [3] concerns COLO 205 colon.
Assay [4] relates to BT-549 breast.
The test system of assay [5] is RPMI-8226 leukemia.
Assay [6] deals with SK-OV-3 ovarian.
Assay [7] deals with NCI-H460 lung.
In assay [8] the test system is NCI-H23 lung.
The subject of assay [9] is EKVX NSCLC.
Assay [10] deals with MOLT-4 leukemia.

As for `CC1=C([Se]CC(OC(=O)[C@@H](CO)NC(=O)OC(C)(C)C)C(=O)NC(C)(C)C)C(=O)c2ccccc2C1=O` (stereo not given in full), the GI50 in assay [1] is 0.87 µM; in assay [2], 0.332 µM; in assay [3], 1.83 µM; in [4] it was 1.59 µM; in assay [5], 2.74 µM; in assay [6] it was 1.27 µM. In addition, the GI50 in assay [7] was 0.456 µM; in [8], 1.49 µM; in assay [9], 1.76 µM. In addition, the TGI in assay [1] turned out to be 3.81 µM; in [2], 1.06 µM; in assay [3] it was 3.3 µM; in [4], 2.93 µM; in assay [5] it was 8.91 µM; in [6], 2.55 µM. Also, the TGI in assay [7] was determined as 1.8 µM; in assay [8], 3.2 µM; in assay [9] it was 3.71 µM.

Regarding `C[C@H]1CC[C@@H]2[C@@H](C)[C@H]3[C@H](C[C@H]4[C@@H]5CC=C6C[C@@H](O)CC[C@]6(C)[C@H]5C[C@H](O)[C@]34C)N2C1`, the TGI in assay [2], in assay [3], in [4], in [5], in [10] and in assay [6] was more than 100 µM throughout. Moreover, the TGI in assay [7], in assay [8] and in assay [9] was more than 100 µM each time.

`N#Cc1cccc(NC(=O)c2oc3ccccc3c2-c2cnn(-c3ccccc3)c2)c1`: the GI50 in assay [1] is more than 500 µM; in assay [3], more than 500 µM; in assay [4] it was 167 µM; in assay [5] it was more than 500 µM; in [6], more than 500 µM; in assay [7], more than 500 µM. For the same compound, the GI50 in assay [8] and in assay [9] was more than 500 µM each time. The TGI in assay [1], in assay [3], in [4], in assay [5], in [6] and in assay [7] was more than 500 µM in each case. The TGI in assay [8] and in assay [9] was more than 500 µM throughout.

As to `CCOC(=O)C1=C(C)NC2SC(=O)/C(=C\c3ccccc3)N2C1c1ccccc1` (stereo not given), the GI50 in [1] is 25.6 µM; in assay [2], 38.2 µM; in assay [3], more than 100 µM; in assay [4], more than 100 µM; in assay [5], 33.5 µM; in assay [6] it was more than 100 µM. Also, the GI50 in [7] was 93.5 µM; in [8] it was more than 100 µM; in [9] it was more than 100 µM. Besides, the TGI in [1], in [2], in assay [3], in [4], in assay [5] and in assay [6] was more than 100 µM in each case. The TGI in assay [7], in assay [8] and in assay [9] was more than 100 µM each time.

Regarding `COc1ccc2c(=O)c3cc([N+](=O)[O-])ccc3n(C)c2c1`, the TGI in assay [1], in [2], in assay [3], in assay [4], in assay [5] and in assay [10] was more than 100 µM in each case. The TGI in assay [7] and in assay [9] was more than 100 µM throughout.

Take `C/C(=C\CCc1ccoc1)CC/C=C(\C)CCCN1CCC(CO)CC1`: the GI50 in assay [1] is 1.96 µM; in assay [2] it was 2.51 µM; in assay [3] it was 1.94 µM; in [4], 2.77 µM; in assay [5] it was 2.03 µM; in assay [10] it was 2.32 µM. Further, the figures for the GI50 in [6], in [7] and in assay [8] were 6.94 µM, 2.08 µM and 3.78 µM, respectively. Also, the TGI in [1] turned out to be 3.95 µM; in assay [2], 8.92 µM; in [3], 3.98 µM; in assay [4] it was 12.1 µM; in [5], 4.48 µM; in assay [10] it was 5.67 µM. Moreover, the TGI in [6] amounted to 20 µM; in [7] it was 4.37 µM; in [8] it was 14.7 µM.

As for `CN(C)CCN=Cc1c2ccccc2c(=O)n2c1oc1ccccc12`, the GI50 in assay [1] is 10.9 µM; in [4] it was 7.61 µM; in assay [5], 11.3 µM; in assay [10] it was 4.2 µM; in [6], 8.44 µM; in assay [7] it was 2.94 µM. Moreover, the GI50 in assay [8] is 10.5 µM; in [9], 6.76 µM. For the same compound, the TGI in assay [1] is 55 µM; in assay [4] it was 21.1 µM; in assay [5] it was more than 100 µM; in [10], more than 100 µM; in assay [6], 24.3 µM; in assay [7], 11.7 µM. In addition, the values for the TGI in [8] and in assay [9] were 23 µM and 21.4 µM, respectively.

In the case of `CC(=O)OCC1OC(OC2=C(CC=C(Cl)Cl)C(=O)c3ccccc3C2=O)C(OC(C)=O)C(OC(C)=O)C1OC(C)=O` (stereo not given), the GI50 was 1.99 µM in assay [2]; 13.6 µM in assay [3]; 7.03 µM in assay [4]; 2.05 µM in [5]; 1.43 µM in [10]; 15.1 µM in assay [6]. Also, the GI50 in [7] was 12.5 µM; in assay [8] it was 13.2 µM. Also, the TGI in [2] was determined as 5.41 µM; in assay [3] it was 36.3 µM; in assay [4] it was 20.4 µM; in assay [5], 6.78 µM; in [10] it was 9.89 µM; in assay [6], 28.7 µM. For the same compound, the TGI was 34.4 µM in assay [7] and 36.8 µM in [8].

Turning to `COC(=O)[C@H](CC(C)C)NC(=O)NC(=O)NC(=O)CI`, the GI50 in assay [2] is 2.28 µM; in assay [3], 1.79 µM; in assay [4], 5.32 µM; in assay [5] it was 2.92 µM; in [10] it was 2.1 µM; in assay [6] it was 17.6 µM. Also, the GI50 was 18.7 µM in assay [7], 14.9 µM in assay [8] and 16.1 µM in assay [9]. In addition, the TGI was found to be 7.03 µM in [2]; 3.47 µM in [3]; 17.7 µM in [4]; 7.75 µM in assay [5]; 5.12 µM in assay [10]; 31.8 µM in assay [6]. For the same compound, the TGI in assay [7] worked out at 41.5 µM; in [8], 32.2 µM; in assay [9], 29.8 µM.

Consider `COc1cccc(C2NC(=S)NC(C)=C2C(=O)Nc2ccc(F)c(Cl)c2)c1` (stereo not given), for which the GI50 was 17.4 µM in [1]; more than 50 µM in [2]; 27.2 µM in assay [3]; 15.2 µM in assay [4]; 11.6 µM in assay [5]; more than 50 µM in assay [6]. The figures for the GI50 in [7], in [8] and in [9] were 43.2 µM, 18.5 µM and 22.8 µM, respectively. Besides, the TGI is more than 50 µM in [1]; more than 50 µM in assay [2]; more than 50 µM in assay [3]; 46.1 µM in assay [4]; more than 50 µM in [5]; more than 50 µM in [6]. The TGI was more than 50 µM in assay [7], 47.7 µM in [8] and more than 50 µM in assay [9].

On to `COC(=O)[C@@]1(C)CC[C@]2(C)CC[C@]3(C)C4=CC=C5C(=CC(=O)C(O)=C5C)[C@]4(C)CC[C@@]3(C)[C@@H]2C1`, for which the GI50 in [1] was 0.163 µM; in [3], 0.182 µM; in assay [4], 0.36 µM; in assay [5], 0.183 µM; in assay [10] it was 0.164 µM; in assay [6], 0.775 µM. Moreover, the GI50 in [7] was 0.274 µM; in assay [8], 0.235 µM; in [9], 0.295 µM. Further, the TGI in assay [1] came to 0.684 µM; in assay [3], 0.437 µM; in assay [4] it was 0.889 µM; in assay [5], 0.517 µM; in assay [10], 0.525 µM; in assay [6] it was 2.01 µM. Besides, the TGI in assay [7] is 0.796 µM; in [8] it was 0.637 µM; in assay [9], 1.11 µM.

Regarding `COc1ccc(/C=C/c2cc(N3CCOCC3)c3cc(F)c(F)cc3n2)cc1OC`, the GI50 in [1] was 0.435 µM; in [2], 0.449 µM; in [3], 0.558 µM; in assay [4], 0.777 µM; in assay [5] it was 1.5 µM; in assay [10] it was 0.624 µM. Moreover, the GI50 in [6] was 1.32 µM; in assay [7], 0.526 µM; in assay [8], 1.12 µM. For the same compound, the TGI in assay [1] is 5.14 µM; in [2] it was 5.69 µM; in assay [3] it was 3.81 µM; in assay [4] it was 5.46 µM; in assay [5], 9 µM; in assay [10] it was 11 µM. Further, the TGI in assay [6] amounted to 9.17 µM; in assay [7], 3.72 µM; in assay [8], 6.11 µM.

For the compound `COC(=O)Nc1nc2cc3c(cc2s1)OCCO3`, the GI50 in [1], in assay [2], in assay [3], in [4], in [5] and in [10] was more than 50 µM in each case. Moreover, the GI50 in [6], in [7] and in assay [8] was more than 50 µM each time. Moreover, the TGI in assay [1], in assay [2], in assay [3], in assay [4], in assay [5] and in assay [10] was more than 50 µM in each case. For the same compound, the TGI in assay [6], in assay [7] and in assay [8] was more than 50 µM in each case.

In the case of `NCC1OC(OC2C(CO)OC(OC3C(O)C(N)CC(N)C3OC3OC(CO)C(O)C(O)C3N)C2O)C(N)C(O)C1O` (stereo not given), the GI50 in assay [3], in assay [4], in [5], in [6], in assay [7] and in assay [8] was more than 50 µg/mL in each case. Further, the GI50 in [9] is more than 50 µg/mL. Besides, the TGI in assay [3], in assay [4], in assay [5], in [6], in assay [7] and in assay [8] was more than 50 µg/mL each time. This compound also returned a TGI in assay [9] of more than 50 µg/mL.

In the case of `CC(=O)OC1CCC2(C)C(=CCC3C2CCC2(C)C(C(C)C(=O)O)CCC32)C1` (stereo not given), the TGI in assay [2], in assay [3], in assay [4], in assay [5], in [10] and in assay [6] was more than 100 µM each time. Also, the TGI in assay [7], in assay [8] and in [9] was more than 100 µM throughout.

For the compound `CCC1CC(=O)N(SCC(N)C(=O)O)C1=O` (stereo not given), the TGI in assay [1], in assay [2], in assay [3], in assay [4], in assay [5] and in [6] was more than 100 µM each time. For the same compound, the TGI in assay [7], in assay [8] and in assay [9] was more than 100 µM in each case.

For `CNC(C)C(=O)N[C@H](C(=O)N1CCC[C@@H]1CN(CCc1ccccc1)C(=O)C(F)(F)F)[C@H](C)OCC#CC#CCO[C@H](C)[C@H](NC(=O)[C@H](C)NC)C(=O)N1CCC[C@H]1CN(CCc1ccccc1)C(=O)C(F)(F)F` (stereo not given in full), the GI50 was 1.64 µM in assay [2]; 1.42 µM in assay [3]; less than 0.01 µM in assay [4]; 1.53 µM in assay [5]; 1.75 µM in assay [10]; less than 0.01 µM in assay [6]. For the same compound, the GI50 was 1.83 µM in [7], 1.16 µM in [8] and 1.63 µM in [9]. Besides, the TGI in [2] is 3.3 µM; in assay [3] it was 2.99 µM; in [4], 1.69 µM; in assay [5], 3.52 µM; in assay [10], 4.1 µM; in [6], less than 0.01 µM. Moreover, the TGI was 3.59 µM in assay [7], 2.68 µM in [8] and 3.34 µM in [9].

`COc1cc(C2CC(c3cc(C)ccc3C)=NN2c2ccc(S(=O)(=O)NC(=O)NCc3ccccc3)cc2)cc(OC)c1OC` (stereo not given): the GI50 is 3.62 µM in assay [1]; 4.19 µM in [2]; 3.08 µM in assay [4]; 2.8 µM in assay [5]; 3.24 µM in assay [10]; 4.98 µM in assay [6]. Besides, the results for the GI50 in [7] and in assay [8] were 2.54 µM and 3.37 µM, respectively. The TGI in assay [1] was determined as 11.4 µM; in [2] it was 30.1 µM; in assay [4] it was 12.6 µM; in [5], 9.11 µM; in [10] it was 25.2 µM; in assay [6] it was 18.4 µM. The TGI was determined as 6.48 µM in assay [7] and 19.5 µM in assay [8].
